Assay results taken from ChEMBL document CHEMBL1201862, “PubChem BioAssay data set” (2004).
The source made the active and inactive calls.

Tests used:
[1] = biological target: Polyadenylate-binding protein 1 (Homo sapiens, UniProt P11940); assay: blockers of PABP interaction with poly(A) – biochemical, fluorescence polarization, […] (AID 2014)
[2] = biological target: Eukaryotic translation initiation factor 4H (Homo sapiens, UniProt Q15056); assay: eIF4H binding inhibition – biochemical, uHTS, fluorescence polarization, translation initiation inhibitor project, primary screen (AID 2012)
[3] = biological target: DNA dC->dU-editing enzyme APOBEC-3G (Homo sapiens, UniProt Q9HC16); assay: Dose Response confirmation of small molecule APOBEC3G DNA Deaminase Inhibitors via a fluorescence-based single-stranded DNA deaminase assay. [Related pubchem assays (depositor defined):AID493012, AID493028]; assay type: functional
Chain of DNA dC->dU-editing enzyme APOBEC-3G (Q9HC16 whole entry): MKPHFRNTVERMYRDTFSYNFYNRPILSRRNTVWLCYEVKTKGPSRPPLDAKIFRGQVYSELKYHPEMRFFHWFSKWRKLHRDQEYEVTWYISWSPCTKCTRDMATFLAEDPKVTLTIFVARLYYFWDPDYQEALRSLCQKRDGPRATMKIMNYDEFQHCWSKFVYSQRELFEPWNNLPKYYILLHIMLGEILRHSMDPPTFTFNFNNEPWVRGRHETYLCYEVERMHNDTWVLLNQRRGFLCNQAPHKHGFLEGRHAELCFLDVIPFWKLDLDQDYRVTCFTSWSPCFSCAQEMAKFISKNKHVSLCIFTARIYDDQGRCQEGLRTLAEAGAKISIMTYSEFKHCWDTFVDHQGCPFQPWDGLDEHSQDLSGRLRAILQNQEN

[4] = NIH3T3 cell viability loss – ATP luminescence, mouse fibroblasts, counter-screen, dose response (AID 2010); assay type: functional, cell-based;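 note: cells exposed to compound for about 90 hours before reading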
[5] = biological target: T1, Mannose-6-phosphate isomerase (Homo sapiens, UniProt P34949); assay: phosphomannose isomerase inhibition – biochemical, fluorescence intensity, confirmation (AID 1535)
T1 sequence (P34949 whole entry): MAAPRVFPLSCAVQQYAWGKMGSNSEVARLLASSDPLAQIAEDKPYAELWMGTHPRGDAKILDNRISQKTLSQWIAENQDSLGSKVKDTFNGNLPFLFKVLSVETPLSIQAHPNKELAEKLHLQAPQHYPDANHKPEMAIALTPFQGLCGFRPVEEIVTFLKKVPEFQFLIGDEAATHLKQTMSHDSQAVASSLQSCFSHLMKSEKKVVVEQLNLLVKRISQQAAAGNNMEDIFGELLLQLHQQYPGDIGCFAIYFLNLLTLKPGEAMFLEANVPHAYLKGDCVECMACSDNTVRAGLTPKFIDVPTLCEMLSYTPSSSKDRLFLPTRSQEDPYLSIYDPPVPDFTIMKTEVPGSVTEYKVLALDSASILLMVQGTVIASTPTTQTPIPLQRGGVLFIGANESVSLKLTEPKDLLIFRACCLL

[6] = biological target: T1, Mannose-6-phosphate isomerase; assay: MPI enzyme activity inhibition – biochemical, fluorescence intensity, coupled assay, primary screen (AID 1209)
Phosphomannomutase 2 = Phosphomannomutase 2 (Homo sapiens, UniProt O15305); assay: Counter screen SAR assay for PMM2 inhibitors via a fluorescence intensity assay. [Related pubchem assays (depositor defined):AID1545, AID1574]
Chain of Phosphomannomutase 2 (O15305 whole entry): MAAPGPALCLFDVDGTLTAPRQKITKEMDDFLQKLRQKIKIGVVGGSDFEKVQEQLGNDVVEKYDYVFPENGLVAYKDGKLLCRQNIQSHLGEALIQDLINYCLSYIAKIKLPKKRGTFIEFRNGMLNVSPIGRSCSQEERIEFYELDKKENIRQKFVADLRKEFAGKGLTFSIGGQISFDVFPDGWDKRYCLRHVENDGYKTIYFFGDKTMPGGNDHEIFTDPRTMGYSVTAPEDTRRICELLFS

[7] = Trypanosoma cruzi growth suppression in host cells – NIH3T3 host cells, beta-gal luminescence, confirmation (AID 2044); assay type: functional, cell-based;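 note: intracellular parasites grown in NIH/3T3 mouse fibroblasts as host cells; luminescent beta-galactosidase reporter signal from transgenic T. cruzi replicating inside host cells; inhibitors lower the luminescence signal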
[8] = biological target: Eukaryotic translation initiation factor 4E (Mus musculus, UniProt P63073); assay: blockers of eIF4G binding by eIF4E – biochemical, TR-FRET, dose response (AID 855); assay type: functional;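 note: potency for disrupting eIF4E binding to eIF4GI seen as loss of FRET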
Chain of Eukaryotic translation initiation factor 4E (P63073 whole entry): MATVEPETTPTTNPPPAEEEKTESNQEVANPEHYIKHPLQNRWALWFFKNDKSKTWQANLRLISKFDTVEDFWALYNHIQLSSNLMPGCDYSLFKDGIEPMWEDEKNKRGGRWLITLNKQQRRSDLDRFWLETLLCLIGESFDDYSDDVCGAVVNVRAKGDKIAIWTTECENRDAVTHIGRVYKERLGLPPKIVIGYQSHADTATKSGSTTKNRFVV

[9] = A Cell Based Assay for the Identification of Probe candidate Compounds with Anti- Venezuelan Equine Encephalitis virus. [Related pubchem assays: 2409, 2419, 1621, 2238, 2405, 2024, 2065, 2402, 2414, 1635, 1650, 2244 ]; assay type: functional
[10] = biological target: T2, Ubiquitin-conjugating enzyme E2 N (Homo sapiens, UniProt P61088); assay type: functional;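 note: Dose-response confirmation in a TR-FRET assay detecting UBC13-driven polyubiquitin chain formation, inhibition measured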
T2 sequence (P61088 whole entry): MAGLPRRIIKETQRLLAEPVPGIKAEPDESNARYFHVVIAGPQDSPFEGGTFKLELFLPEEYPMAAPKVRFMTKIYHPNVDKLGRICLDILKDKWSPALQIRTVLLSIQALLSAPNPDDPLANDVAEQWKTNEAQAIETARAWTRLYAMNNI

Vero [11] = assay: Vero 76 cell viability after compound exposure – Vero 76 cells, synthesized analogs, cytotoxicity control for West Nile virus antiviral project, SAR follow-up (AID 2414); assay type: functional; settings: Chlorocebus sabaeus
Vero [12] = assay: antiviral protection of cells from WNV – synthesized analogs, SAR follow-up (AID 2238); assay type: functional, cell-based; settings: Chlorocebus sabaeus
Vero [13] = assay: host cell viability loss, Vero E6 – synthesized analogs, cytotoxicity control for West Nile virus antiviral project, SAR follow-up (AID 2244); assay type: functional; settings: Chlorocebus sabaeus
Vero [14] = assay: Vero cell viability after compound exposure – synthesized analogs, set II, cytotoxicity control for West Nile virus antiviral project, SAR follow-up (AID 2402); assay type: functional; settings: Chlorocebus sabaeus
[15] = HRAS-V12 fibroblast viability reduction – cell-based, Alamar Blue, dry powder, Ras selective lethality project, primary screen (AID 493045); assay type: functional; settings: BJeLR
[16] = DRD BJ cell killing, Ras synthetic lethality – DRD BJ fibroblasts, HRASV12, dry powder, dose response (AID 493049); assay type: functional, cell-based
[17] = BJeH cell viability loss – BJeH cells, dry powder, counter-screen for Ras selective lethality project, dose response (AID 493054); assay type: functional, cell-based
[18] = BJeHLT cell viability loss – BJeHLT cells, dry powder, counter-screen for Ras selective lethality project, dose response (AID 493052); assay type: functional, cell-based; settings: Homo sapiens
[19] = glucagon-like peptide-1 release potency in STC-1, concentration-response, half-maximal inhibitory concentration in the STC-1 line (AID 1117345); assay type: functional, cell-based
[20] = biological target: Envelope glycoprotein gp160 (Human immunodeficiency virus 1, UniProt Q6QLK5); assay: cell-free HIV fusion peptide-binding blockers – biochemical, uHTS, fluorescence dequenching, […] (AID 1986)
Chain of Envelope glycoprotein gp160 (Q6QLK5 whole entry, the tested form may be a part): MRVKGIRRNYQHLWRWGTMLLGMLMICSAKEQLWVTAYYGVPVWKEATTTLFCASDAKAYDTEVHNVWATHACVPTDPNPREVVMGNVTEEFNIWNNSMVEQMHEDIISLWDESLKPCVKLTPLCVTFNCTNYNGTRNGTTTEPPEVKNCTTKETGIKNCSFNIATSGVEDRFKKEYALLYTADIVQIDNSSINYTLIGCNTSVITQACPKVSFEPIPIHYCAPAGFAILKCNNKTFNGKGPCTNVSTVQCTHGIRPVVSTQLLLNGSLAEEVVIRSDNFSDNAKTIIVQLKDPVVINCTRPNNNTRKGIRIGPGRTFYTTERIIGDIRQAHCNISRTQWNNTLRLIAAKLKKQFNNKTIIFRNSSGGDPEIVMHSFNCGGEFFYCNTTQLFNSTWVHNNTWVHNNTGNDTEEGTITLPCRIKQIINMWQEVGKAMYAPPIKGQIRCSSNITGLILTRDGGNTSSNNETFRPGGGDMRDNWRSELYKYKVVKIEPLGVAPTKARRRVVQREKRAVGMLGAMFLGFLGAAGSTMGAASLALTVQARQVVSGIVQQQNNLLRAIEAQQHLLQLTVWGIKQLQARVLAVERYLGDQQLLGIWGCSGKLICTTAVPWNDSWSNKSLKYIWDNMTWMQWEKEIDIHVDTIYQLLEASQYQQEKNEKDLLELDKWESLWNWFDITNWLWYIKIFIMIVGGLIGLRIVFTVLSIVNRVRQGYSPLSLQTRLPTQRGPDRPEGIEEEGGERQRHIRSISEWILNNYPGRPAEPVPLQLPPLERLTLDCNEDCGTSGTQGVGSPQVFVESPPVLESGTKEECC

[21] = cytotoxicity toward Colo320 cells – cell-based, CellTiter-Glo luminescence, IC50, dose response (AID 1117334); assay type: functional; settings: COLO 320
[22] = Potency on glucagon-like peptide 1 release, dose-response in NCI-H716 cell line, half maximal inhibitory concentration (AID 1117344); assay type: functional, cell-based
Streptococcus = assay: GAS UMAA2166 growth inhibition – luminescence, BacTiterGlo, counter-screen for streptokinase expression inhibitor project, dose response (AID 1915); assay type: functional, organism-based;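 note: potency for reduction of bacterial viability or growth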
[23] = Reduced DLD-1 viability, concentration-response, CellTiter-Glo luminescence (AID 1117352); assay type: functional
[24] = cytotoxicity toward HCT116 cells – cell-based, CellTiter-Glo luminescence, IC50, dose response (AID 1117332); assay type: functional; settings: HCT-116
[25] = cytotoxicity toward HT-29 cells – cell-based, CellTiter-Glo luminescence, IC50, dose response (AID 1117330); assay type: functional
[26] = SNU-C1 cell viability reduction, dose response, CellTiter-Glo luminescence (AID 1117323); assay type: functional, cell-based
[27] = CCR5-tropic HIV-1 fusion blockers – cell-based, CCR5-tropic Env, dose response (AID 2279); assay type: functional
[28] = tested on: Streptococcus sp. 'group A'; assay: Streptococcus pyogenes SK(-)GAS viability under kanamycin – luminescence, BacTiterGlo, confirmation, counter-screen for streptokinase expression inhibitor project, dose response (AID 1900); assay type: functional, organism-based
[29] = RKO cell viability reduction, dose response, CellTiter-Glo luminescence (AID 1117322); assay type: functional
[30] = CellTiter-Glo luminescence survival assay, SW480 colon tumor line, concentration-response curve, half-maximal inhibitory concentration (AID 1117338); assay type: functional

Chain of Polyadenylate-binding protein 1 (P11940 whole entry): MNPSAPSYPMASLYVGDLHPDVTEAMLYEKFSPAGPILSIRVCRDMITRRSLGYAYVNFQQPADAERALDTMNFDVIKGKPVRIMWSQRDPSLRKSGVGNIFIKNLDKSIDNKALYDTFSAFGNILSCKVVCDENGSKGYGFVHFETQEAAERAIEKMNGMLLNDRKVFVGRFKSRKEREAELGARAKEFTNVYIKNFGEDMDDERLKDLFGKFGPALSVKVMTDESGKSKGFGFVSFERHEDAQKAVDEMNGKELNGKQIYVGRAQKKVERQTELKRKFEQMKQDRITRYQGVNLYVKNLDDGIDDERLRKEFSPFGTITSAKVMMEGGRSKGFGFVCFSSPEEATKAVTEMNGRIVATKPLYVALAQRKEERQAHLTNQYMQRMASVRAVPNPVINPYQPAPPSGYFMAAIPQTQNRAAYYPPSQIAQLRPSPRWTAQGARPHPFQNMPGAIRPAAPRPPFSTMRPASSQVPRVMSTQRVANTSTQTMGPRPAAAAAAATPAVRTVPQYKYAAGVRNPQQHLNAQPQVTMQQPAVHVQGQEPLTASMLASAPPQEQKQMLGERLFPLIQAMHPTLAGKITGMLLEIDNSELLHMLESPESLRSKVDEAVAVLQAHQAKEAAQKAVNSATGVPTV

COc1ccc2[nH]c(O)c(N=NC(=O)Cc3cccs3)c2c1
active: IC50 [1] 31 µM | IC50 [2] 11 µM

COc1ccc2nc(N=C(S)N(C)C)sc2c1
active: IC50 [3] 40.8 µM | IC50 [5] 46.1 µM | IC50 [6] 8.33 µM | EC50 [7] 2.03 µM
inconclusive: EC50 [4] > 60 µM
inactive: IC50 (Phosphomannomutase 2) > 100 µM | IC50 [8] > 64 µM

CC1CC(C)CN(CCCNC(=O)c2cc3c(s2)-c2ccccc2OC3)C1 (configuration not stated)
active: IC50 [9] 15.5 µM | CC50 (Vero [11]) 29.4 µM | IC50 (Vero [12]) > 40 µM | CC50 (Vero [13]) 12.4 µM | CC50 (Vero [14]) 11.2 µM
inactive: IC50 [10] > 20 µM

COc1ccc(N(C(=O)CCl)C(C(=O)NCS(=O)(=O)c2ccc(C)cc2)c2cccs2)cc1Cl (configuration not stated)
active: AC50 [15] 0.089 µM | AC50 [16] 0.083 µM | AC50 [17] 0.347 µM | AC50 [18] 0.208 µM

O=C(Nc1ccc(Oc2ccc(Cl)cc2)c(Cl)c1)c1cc(I)cc(I)c1O [RAFOXANIDE]
active: IC50 [19] 1.3 µM | IC50 [20] 19.7 µM | IC50 [21] 0.054 µM | EC50 (Streptococcus) 0.137 µM | IC50 [23] 0.0084 µM | IC50 [24] 0.0169 µM | IC50 [25] 0.0095 µM | IC50 [26] 0.0143 µM | IC50 [27] 7.36 µM | EC50 [28] 0.08 µM | IC50 [29] 0.0303 µM | IC50 [30] 0.0108 µM
inactive: IC50 [22] > 40 µM
